What was measured:
human Gal-3 (hGal-3) = human Gal-3 (hGal-3) (Homo sapiens (Human), UniProt P17931); assay: Competitive binding assay: binding of biotinylated hGal-3 to microplate-adsorbed asialofetuin (ASF); details: Activity on hGal-3; mean values of several measurements
How it was run: (§1)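 Compounds diluted in DMSO competed with biotinylated hGal-3 or hGal-1 (300-1000 ng/mL) for binding to plate-adsorbed asialofetuin for 3 h at 4° C. Bound galectin was detected with streptavidin-peroxidase (80 ng/mL, 1 h, 4° C) and ABTS substrate; IC50 reported as mean of several measurements.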

human Gal-1 (hGal-1) [1] = molecular target: human Gal-1 (hGal-1) (Homo sapiens, UniProt P09382); assay: Competitive binding assay: binding of biotinylated hGal-1 to microplate-adsorbed asialofetuin (ASF); details: Activities on hGal-1; mean values of several measurements
human Gal-1 (hGal-1), sequence (P09382 2-135 limits assumed): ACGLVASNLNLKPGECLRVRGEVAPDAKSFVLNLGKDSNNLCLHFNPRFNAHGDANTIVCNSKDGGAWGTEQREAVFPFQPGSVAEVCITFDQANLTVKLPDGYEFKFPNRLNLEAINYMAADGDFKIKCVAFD
human Gal-1 (hGal-1) (Homo sapiens, UniProt P09382), sequence (P09382 2-135 limits assumed): as above
How it was run: as §1

human Gal-1 (hGal-1) [2] = assay: as above; details: Activities on hGal-1; mean values of several measurements
How it was run: as §1

human Gal-3 (hGal-3), sequence (P17931 whole entry): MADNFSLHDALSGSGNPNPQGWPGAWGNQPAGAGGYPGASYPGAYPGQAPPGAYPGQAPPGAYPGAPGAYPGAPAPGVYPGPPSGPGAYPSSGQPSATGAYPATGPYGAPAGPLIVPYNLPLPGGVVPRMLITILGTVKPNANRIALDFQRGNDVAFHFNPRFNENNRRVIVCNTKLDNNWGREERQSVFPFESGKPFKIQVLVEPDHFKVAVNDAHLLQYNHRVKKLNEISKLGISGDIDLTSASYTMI

Compound	IC50 (human Gal-3 (hGal-3)) [nM]	IC50 (human Gal-1 (hGal-1) [2]) [nM]	IC50 (human Gal-1 (hGal-1) [1]) [nM]
CC(C)(C)OC(=O)N1CCC(c2cc(C[C@H]3O[C@H](CO)[C@H](O)[C@H](n4cc(-c5cc(F)c(F)c(F)c5)nn4)[C@H]3OCC(F)F)no2)CC1 [Example 2.25, tert-butyl 4-(3-(((2R,3R,4S,5R,6R)-3-(2,2-difluoroethoxy)-5-hydroxy-6-(hydroxymethyl)-4-(4-(3,4,5-trifluorophenyl)-1H-1,2,3-triazol-1-yl)tetrahydro-2H-pyran-2-yl)methyl)issoxazole-5-yl)piperidine-1-carboxylate]	170	–	1280
CO[C@@H]1[C@@H](n2cc(-c3cc(F)c(F)c(F)c3)nn2)[C@@H](O)[C@@H](CO)O[C@@H]1C[C@@H]1CN(C2CCN(C(=O)C(C)C)CC2)C(=O)O1 [Example 5.13, (R)-5-(((2R,3R,4S,5R,6R)-5-hydroxy-6-(hydroxymethyl)-3-methoxy-4-(4-(3,4,5-trifluorophenyl)-1H-1,2,3-triazol-1-yl)tetrahydro-2H-pyran-2-yl)methyl)-3-(1-isobutyrylpiperidin-4-yl)oxazolidin-2-one]	590	4730	–
CO[C@@H]1[C@@H](n2cc(-c3cc(F)c(F)c(F)c3)nn2)[C@@H](O)[C@@H](CO)O[C@@H]1C[C@H]1CN(C2CCN(C(=O)OC(C)(C)C)CC2)C(=O)O1 [Example 5.14, tert-butyl 4-((S)-5-(((2R,3R,4S,5R,6R)-5-hydroxy-6-(hydroxymethyl)-3-methoxy-4-(4-(3,4,5-trifluorophenyl)-1H-1,2,3-triazol-1-yl)tetrahydro-2H-pyran-2-yl)methyl)-2-oxooxazolidin-3-yl)piperidine-1-carboxylate]	340	6410	–
CO[C@@H]1[C@@H](n2cc(-c3cc(F)c(F)c(F)c3)nn2)[C@@H](O)[C@@H](CO)O[C@@H]1C[C@@H]1CN(C2CCN(C(=O)OC(C)(C)C)CC2)C(=O)O1 [Example 5.15, tert-butyl 4-((R)-5-(((2R,3R,4S,5R,6R)-5-hydroxy-6-(hydroxymethyl)-3-methoxy-4-(4-(3,4,5-trifluorophenyl)-1H-1,2,3-triazol-1-yl)tetrahydro-2H-pyran-2-yl)methyl)-2-oxooxazolidin-3-yl)piperidine-1-carboxylate]	50	210	–
(2R,3R,4S,5R,6R)-4-(4-(2,3-difluoro-4-methylphenyl)-1H-1,2,3-triazol-1-yl)-6-((3-(1-hydroxycyclobutyl)isoxazol-5-yl)methyl)-2-(hydroxymethyl)-5-methoxytetrahydro-2H-pyran-3-ol [Example 2.57]	81	1450	–
(2R,3R,4S,5R,6R)-4-(4-(4-chloro-2,3-difluorophenyl)-1H-1,2,3-triazol-1-yl)-6-((3-(1-hydroxycyclobutyl)isoxazol-5-yl)methyl)-2-(hydroxymethyl)-5-methoxytetrahydro-2H-pyran-3-ol [Example 2.58]	60	1460	–

Now from value to compound, other results behind:

IC50 (human Gal-3 (hGal-3)) [nM]	IC50 (human Gal-1 (hGal-1) [2]) [nM]	Compound	IC50 (human Gal-1 (hGal-1) [1]) [nM]
560	6380	CO[C@@H]1[C@@H](n2cc(-c3cc(F)c(F)c(F)c3)nn2)[C@@H](O)[C@@H](CO)O[C@@H]1Cc1cc(C2CCC(F)(F)CC2)sn1 [Example 6.01, (2R,3R,4S,5R,6R)-6-((5-(4,4-difluorocyclohexyl)isothiazol-3-yl)methyl)-2-(hydroxymethyl)-5-methoxy-4-(4-(3,4,5-trifluorophenyl)-1H-1,2,3-triazol-1-yl)tetrahydro-2H-pyran-3-ol]	–
110	1970	CO[C@@H]1[C@@H](n2cc(-c3cc(F)c(F)c(F)c3)nn2)[C@@H](O)[C@@H](CO)O[C@@H]1Cc1cc(C2CCN(C(=O)OC(C)(C)C)CC2)sn1 [Example 6.02, tert-butyl 4-(3-(((2R,3R,4S,5R,6R)-5-hydroxy-6-(hydroxymethyl)-3-methoxy-4-(4-(3,4,5-trifluorophenyl)-1H-1,2,3-triazol-1-yl)tetrahydro-2H-pyran-2-yl)methyl)isothiazol-5-yl)piperidine-1-carboxylate]	–
220	4160	CO[C@@H]1[C@@H](n2cc(-c3cc(F)c(F)c(F)c3)nn2)[C@@H](O)[C@@H](CO)O[C@@H]1Cc1cc(C2CCNCC2)sn1 [Example 6.03, (2R,3R,4S,5R,6R)-2-(hydroxymethyl)-5-methoxy-6-((5-(piperidin-4-yl)isothiazol-3-yl)methyl)-4-(4-(3,4,5-trifluorophenyl)-1H-1,2,3-triazol-1-yl)tetrahydro-2H-pyran-3-ol]	–
180	2380	CO[C@@H]1[C@@H](n2cc(-c3cc(F)c(F)c(F)c3)nn2)[C@@H](O)[C@@H](CO)O[C@@H]1Cn1cnc(C(C)(C)C)c1 [Example 6.04, (2R,3R,4S,5R,6R)-6-((4-(tert-butyl)-1H-imidazol-1-yl)methyl)-2-(hydroxymethyl)-5-methoxy-4-(4-(3,4,5-trifluorophenyl)-1H-1,2,3-triazol-1-yl)tetrahydro-2H-pyran-3-ol]	–
250	8190	CO[C@@H]1[C@@H](n2cc(-c3cc(F)c(F)c(F)c3)nn2)[C@@H](O)[C@@H](CO)O[C@@H]1Cc1cn(-c2ccccc2)c(=O)o1 [Example 6.05, 5-(((2R,3R,4S,5R,6R)-5-hydroxy-6-(hydroxymethyl)-3-methoxy-4-(4-(3,4,5-trifluorophenyl)-1H-1,2,3-triazol-1-yl)tetrahydro-2H-pyran-2-yl)methyl)-3-phenyloxazol-2(3H)-one]	–
42	1630	CO[C@@H]1[C@@H](n2cc(-c3ccc(C)c(F)c3F)nn2)[C@@H](O)[C@@H](CO)O[C@@H]1CN1CC(=O)N(C2CCCCC2)C1 [Example 6.06, 3-cyclohexyl-1-(((2R,3R,4S,5R,6R)-4-(4-(2,3-difluoro-4-methylphenyl)-1H-1,2,3-triazol-1-yl)-5-hydroxy-6-(hydroxymethyl)-3-methoxytetrahydro-2H-pyran-2-yl)methyl)imidazolidin-4-one]	–
150	910	CO[C@@H]1[C@@H](n2cc(-c3cc(F)c(F)c(F)c3)nn2)[C@@H](O)[C@@H](CO)O[C@@H]1CN1CN(C2CCN(C(C)=O)CC2)CC1=O [Example 6.07, 1-(1-acetylpiperidin-4-yl)-3-(((2R,3R,4S,5R,6R)-5-hydroxy-6-(hydroxymethyl)-3-methoxy-4-(4-(3,4,5-trifluorophenyl)-1H-1,2,3-triazol-1-yl)tetrahydro-2H-pyran-2-yl)methyl)imidazolidin-4-one]	–
22	73	CO[C@@H]1[C@@H](n2cc(-c3cc(F)c(F)c(F)c3)nn2)[C@@H](O)[C@@H](CO)O[C@@H]1CN1CC(=O)N(C2CCN(C(C)=O)CC2)C1 [Example 6.08, 3-(1-acetylpiperidin-4-yl)-1-(((2R,3R,4S,5R,6R)-5-hydroxy-6-(hydroxymethyl)-3-methoxy-4-(4-(3,4,5-trifluorophenyl)-1H-1,2,3-triazol-1-yl)tetrahydro-2H-pyran-2-yl)methyl)imidazolidin-4-one]	–
59	6720	CO[C@@H]1[C@@H](n2cc(-c3cc(F)c(F)c(F)c3)nn2)[C@@H](O)[C@@H](CO)O[C@@H]1CN1CC(=O)N(C2CCCCC2)C1 [Example 6.09, 3-cyclohexyl-1-(((2R,3R,4S,5R,6R)-5-hydroxy-6-(hydroxymethyl)-3-methoxy-4-(4-(3,4,5-trifluorophenyl)-1H-1,2,3-triazol-1-yl)tetrahydro-2H-pyran-2-yl)methyl)imidazolidin-4-one]	–
37	890	CO[C@@H]1[C@@H](n2cc(-c3cc(F)c(F)c(F)c3)nn2)[C@@H](O)[C@@H](CO)O[C@@H]1CN1CC(=O)N(C2CCOCC2)C1 [Example 6.10, 1-(((2R,3R,4S,5R,6R)-5-hydroxy-6-(hydroxymethyl)-3-methoxy-4-(4-(3,4,5-trifluorophenyl)-1H-1,2,3-triazol-1-yl)tetrahydro-2H-pyran-2-yl)methyl)-3-(tetrahydro-2H-pyran-4-yl)imidazolidin-4-one]	–
26	92	CCOC(=O)N1CCC(N2CN(C[C@H]3O[C@H](CO)[C@H](O)[C@H](n4cc(-c5cc(F)c(F)c(F)c5)nn4)[C@H]3OC)CC2=O)CC1 [Example 6.11, ethyl 4-(3-(((2R,3R,4S,5R,6R)-5-hydroxy-6-(hydroxymethyl)-3-methoxy-4-(4-(3,4,5-trifluorophenyl)-1H-1,2,3-triazol-1-yl)tetrahydro-2H-pyran-2-yl)methyl)-5-oxoimidazolidin-1-yl)piperidine-1-carboxylate]	–

Reference: patent US12319672B2, “Alpha-D-galactopyranoside derivatives” (Idorsia Pharmaceuticals Ltd, priority 2019, dated 2025)
